This experiment relates to lymph nodes and spleens. Description: In vivo migration of PKH+ DCs to lymph nodes and spleen (immunofluorescence). Details: species or system C57BL/6 mice. The conditions noted are these: intradermal injection, 48 hours. The method, then:
Dendritic cells were cultured and loaded with sarcosine as described in Example 1. DCs were also loaded with PKH cell membrane dye. […] After 48 hours, the lymph nodes and spleens were collected from the mice and immunofluorescence was performed to visualize PKH+ cells (which are the injected DCs) and B220+ cells (which are B cells). […] There was vastly more migration to the lymph nodes/spleen.

`CNCC(=O)O` [sarcosine, N-methylglycine]: the “Increase of migration to the lymph nodes and the spleen over controls, on visual inspection” value is “more than two times, three times, four times more, five times and perhaps even more than ten-fold more than controls”.
